From article PMC6089501 (Journal of Medicinal Chemistry, 2018)
Values after ≈ are worked out from the molar mass of the structure shown.

Tests used:
[1] = test system: M. tuberculosis QcrB T313I mutant strain; format: cell-based, Mycobacterium tuberculosis
[2] = test system: M. tuberculosis QcrB M342T mutant strain; format: cell-based, Mycobacterium tuberculosis

| Structure (SMILES) | MIC T313I [1] | fold shift T313I [1] | MIC M342T [2] | fold shift M342T [2] |
| --- | --- | --- | --- | --- |
| NC(=O)c1sc(N2CCOCC2)cc1OCCc1ccccc1 [Compound 1, 5-Morpholino-3-phenethoxythiophene-2-carboxamide] | 53 µM (≈ 17.6 µg/mL) | 41 | 25 µM (≈ 8.31 µg/mL) | 19 |
| CNC(=O)c1sc(N2CCOCC2)cc1OCCc1ccccc1 [Compound 21, N-Methyl-5-morpholino-3-(2-phenylethoxy)thiophene-2-carboxamide] | >20 µM | >250 | 4.8 µM (≈ 1.66 µg/mL) | 60 |
| NC(=O)c1sc(-c2ccncc2)cc1OCCc1ccccc1 [Compound 35, 3-(2-Phenylethoxy)-5-(4-pyridyl)thiophene-2-carboxamide] | >50 µM | >8.6 | >20 µM | >3 |
| NC(=O)c1sc(N2CCOCC2)cc1OCCc1ccc(OC(F)(F)F)cc1 [Compound 37, 5-Morpholino-3-[2-[4-(trifluoromethoxy)phenyl]ethoxy]thiophene-2-carboxamide] | 11 µM (≈ 4.58 µg/mL) | 46 |  |  |
| NC(=O)c1sc(N2CCOCC2)cc1OCCc1cccc(F)c1 [Compound 39, 3-[2-(3-Fluorophenyl)ethoxy]-5-morpholinothiophene-2-carboxamide] | 59 µM (≈ 20.7 µg/mL) | 110 | 7 µM (≈ 2.45 µg/mL) | 14 |
